According to patent publication US5061713A, “Analgesic oxazolopyridine compounds” (Science et Organization, priority 1989, dated 1991):

Assays:
writhing movements = test: analgesic activity, phenyl-p-benzoquinone writhing movements (technique derived from Siegmund); assay type: in vivo; details: Mus musculus; mice, oral, 1 hour before i.p. phenyl-p-benzoquinone; counted 5th to 10th minute; read-out: ED50, the dose producing a 50% activity (% decrease in the number of writhing movements)
Description: The activity against pain was investigated in mice (23-25 g) according to a protocol derived from the technique described by SIEGMUND (SIEGMUND E.A., R. A. CADMUS & GOLU, J. Pharm. Exp. Ther. 119, 184, 1957). The mice, randomized in batches of 12 animals, received the treatment orally (excipient for the controls) 1 hour before the intraperitoneal injection of a 0.02% aqueous-alcoholic solution of phenyl-p-benzoquinone (Sigma). The writhing movements are counted between the 5th and 10th minute after injection.
The percentage activity obtained was evaluated for each dose (% decrease in the number of writhing movements in the treated animals relative to the controls). An ED50, the dose producing a 50% activity, was determined for each product.

edema = test: anti-inflammatory activity, acute inflammation induced by carrageenan in the rat hind foot (method of Winter); assay type: in vivo; details: rats, 1 hour before carrageenan, edema determined 3 hours after injection, read-out: ED30, the dose producing a 30% activity (percentage decrease in the mean edema)
Description: The anti-inflammatory potential of the compounds was investigated on a model of acute inflammation induced by the subcutaneous injection of a solution of carrageenan into the rat hind foot, according to a technique based on the method of WINTER, C.A., E. A. RISLEY and G. N. NUSS (Proc. Soc. Exp. Med. 111, 554, 1962). The rats (100-120 g), randomized in batches of 8, were treated (including the controls, which receive excipient) 1 hour before the local injection of a 0.5% suspension of carrageenan (Sigma type IV; 0.1 ml per rat). The edema is determined 3 hours after injection, by plethysmometric measurement (UGO BASILE water plethysomometer) of the volume of each of the hind feet (edema=volume of the inflamed foot-volume of the non-inflamed foot).
The percentage activity corresponds to the percentage decrease in the mean edema of the batch compared with the mean of the corresponding control batch. An ED30, the dose producing a 30% activity, was determined.

## CCCC(=O)c1ccnc2nc(-c3ccccc3)oc12 [Example 2, 2-PHENYL-7-BUTYRYLOXAZOLO[4,5-b]PYRIDINE]
Writhing movements
  ED50: ~5 mg/kg

## Fc1ccccc1-c1nc2ncccc2o1 [Example 6 of U.S. Pat. No. 4,038,396, 2-(2-fluorophenyl)oxazolo[4,5-b]pyridine]
Writhing movements
  ED50: ~12 mg/kg
edema
  ED30: 50 mg/kg

## CCCC(=O)c1ccnc2nc(-c3ccccc3F)oc12 [Example 6, 2-(2-FLUOROPHENYL)-7-BUTYRYLOXAZOLO[4,5-b]PYRIDINE]
Writhing movements
  ED50: ~8 mg/kg
